Data taken from patent US20050090433A1 (priority 2002, published 2005).
In brackets after ≈: the same amount, converted by molar mass.

Assays:
[1] = tested on: skin and soft tissue infections (SSTI); experiment: Phase II trial in deep skin and soft tissue infections: clinical response; format: in vivo, human; settings: exploratory subanalysis
Experimental: This randomized, controlled study evaluated the safety and efficacy of two dose regimens of dalbavancin.
There were 62 patients randomized into the study, all received at least one dose of study medication. Four study populations were evaluated for safety and efficacy and were defined as follows: The intent-to-treat (I) population included all patients who received at least one dose of study drug (all randomized study subjects).
The effectiveness of the three treatment regimens was determined by assessing the patients' clinical response and the documented or presumed microbiological responses. The primary efficacy endpoint was clinical response at the follow-up visit for the clinically evaluable population. Clinical response, for both EOT and FU visits, was categorized as success (cure or improvement) or failure (including indeterminate results). Patients classified as successes must not have received additional systemic antibacterial treatment for their infection. Failure was defined as persistence of one or more local or systemic signs and symptoms of SSTI such that treatment with new or additional systemic antibacterial agents was required for the SSTI.

[2] = tested on: Miscellaneous Streptococcus and nontypeable strains; experiment: Dalbavancin MIC, baseline isolates of SSTI trial; format: cell-based; settings: for Dalbavancin MIC, Miscellaneous Streptococcus and nontypeable strains: MITT
Human albumin = Human albumin (Homo sapiens, UniProt P02768); experiment: Protein binding by isothermal titration microcalorimetry; settings: Apparent binding affinity Ka, Human albumin, pH 7.4, ± SD of fit
Sequence of Human albumin (P02768 25-609): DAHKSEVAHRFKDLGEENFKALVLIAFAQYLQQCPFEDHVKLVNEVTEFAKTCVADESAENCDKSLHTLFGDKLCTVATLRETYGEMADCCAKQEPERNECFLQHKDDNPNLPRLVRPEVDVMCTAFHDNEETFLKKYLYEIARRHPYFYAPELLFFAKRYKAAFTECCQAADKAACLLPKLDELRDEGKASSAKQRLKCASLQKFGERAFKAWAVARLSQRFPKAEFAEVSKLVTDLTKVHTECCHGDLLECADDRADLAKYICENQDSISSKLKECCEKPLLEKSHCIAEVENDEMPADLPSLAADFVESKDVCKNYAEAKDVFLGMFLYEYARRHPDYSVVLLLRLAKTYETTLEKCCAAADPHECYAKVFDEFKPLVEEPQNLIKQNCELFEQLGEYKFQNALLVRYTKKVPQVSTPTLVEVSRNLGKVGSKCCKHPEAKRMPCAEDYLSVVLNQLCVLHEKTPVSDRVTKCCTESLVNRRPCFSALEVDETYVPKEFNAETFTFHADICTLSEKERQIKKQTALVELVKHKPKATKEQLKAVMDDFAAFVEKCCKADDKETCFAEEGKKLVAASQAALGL
Experimental: (§1) Integrated heat effects, after correction for heats of dilution, were analyzed by non-linear regression using a simple single-site binding model with the standard Microcal ORIGIN software package. Raw data (μcal/sec) for each injection were integrated to give the total heat effect per addition, then divided by amount of injectant to give kcal/mole of injectant. The same integration was applied for control dilution effects, and this was subtracted from the actual titration data. This provided a differential of the binding curve in which the extent of binding is proportional to the total heat liberated (or absorbed). This was then analyzed by non-linear regression methods in terms of various standard binding models.

Rat albumin = Rat albumin (Rattus norvegicus, UniProt P02770); experiment: as above; settings: Apparent binding affinity Ka, pH 7.4, ± SD of fit
Sequence of Rat albumin (P02770 25-608): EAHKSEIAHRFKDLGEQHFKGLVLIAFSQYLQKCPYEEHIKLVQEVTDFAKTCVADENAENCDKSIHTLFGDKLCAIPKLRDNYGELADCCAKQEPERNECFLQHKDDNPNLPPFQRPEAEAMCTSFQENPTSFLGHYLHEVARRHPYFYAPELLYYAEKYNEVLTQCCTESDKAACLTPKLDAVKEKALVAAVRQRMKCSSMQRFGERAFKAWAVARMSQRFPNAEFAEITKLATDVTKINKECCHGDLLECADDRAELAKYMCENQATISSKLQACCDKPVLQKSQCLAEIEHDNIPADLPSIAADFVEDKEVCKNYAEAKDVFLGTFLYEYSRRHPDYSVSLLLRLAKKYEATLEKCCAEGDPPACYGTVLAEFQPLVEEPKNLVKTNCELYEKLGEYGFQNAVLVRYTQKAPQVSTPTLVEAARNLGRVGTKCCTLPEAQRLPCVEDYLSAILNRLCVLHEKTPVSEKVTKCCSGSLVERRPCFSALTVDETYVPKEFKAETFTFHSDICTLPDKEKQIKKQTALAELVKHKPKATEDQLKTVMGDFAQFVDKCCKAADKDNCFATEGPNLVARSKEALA
Experimental: as §1

In the case of `CN[C@H]1C(=O)N[C@@H]2Cc3ccc(cc3)Oc3cc4cc(c3O[C@@H]3O[C@H](C(=O)O)[C@@H](O)[C@H](O)[C@H]3NC(=O)CCCCCCCCC(C)C)Oc3ccc(cc3Cl)[C@@H](O)[C@@H]3NC(=O)[C@H](NC(=O)[C@@H]4NC(=O)[C@@H](NC2=O)c2cc(cc(O)c2Cl)Oc2cc1ccc2O)c1ccc(O)c(c1)-c1c(O[C@H]2O[C@H](CO)[C@@H](O)[C@H](O)[C@@H]2O)cc(O)cc1[C@@H](C(=O)NCCCN(C)C)NC3=O` [Dalbavancin], the “Clinical success rate, patients with deep or complicated SSTI at baseline” value ([1]; single-dose 1100 mg IV day 1) is reported as 58.3%, the “Clinical success rate, patients with deep or complicated SSTI at baseline” value ([1]; two-dose 1000 mg IV day 1, 500 mg day 8) is reported as 93.8% and the “Dalbavancin MIC, Miscellaneous Streptococcus and nontypeable strains” value ([2]; standard of care group) is reported as 4 (0.016) mg/L. For the same compound, the “Dalbavancin MIC, Miscellaneous Streptococcus and nontypeable strains” value ([2]; two-dose group) was 2 (0.016) mg/L, the MIC ([2]; Streptococcus, read-out: Dalbavancin MIC, Miscellaneous Streptococcus and nontypeable strains, MITT, single dose group) was 0.016 µg/mL (≈ 8.81 nM) and the Kd (Human albumin; 25° C.) was 7.41 µM. It also gave a Kd (Human albumin; 37° C.) of 7.52 µM, a Kd (Rat albumin; 25° C.) of 3.23 µM and a Kd (Rat albumin; 37° C.) of 3.57 µM.
